Reference: US7915291B2, “Hepatitis C virus inhibitors” (Bristol-Myers Squibb Company, priority 2002, dated 2011)

How the values were obtained:
[1] = molecular target: HCV NS3/4A protease complex, BMS strain (UniProt P27958, C1454S/C1711G, species not given/STRAIN_BMS); test: Recombinant HCV NS3/4A protease complex FRET peptide assay (BMS strain); assay type: biochemical, HCV genotype 1a; conditions: NS3/4A BMS strain; read-out: IC50 range
Description: Recombinant HCV NS3/4A Protease Complex FRET Peptide Assay
The purpose of this in vitro assay was to measure the inhibition of HCV NS3 protease complexes, derived from the BMS, H77C or J416S strains, as described below, by compounds of the present invention.
Serum from an HCV-infected patient was obtained from Dr. T. Wright, San Francisco Hospital. An engineered full-length cDNA (compliment deoxyribonucleic acid) template of the HCV genome (BMS strain) was constructed from DNA fragments obtained by reverse transcription-PCR(RT-PCR) of serum RNA (ribonucleic acid) and using primers selected on the basis of homology between other genotype 1a strains.
The BMS, H77C and J4L6S strains were used for production of recombinant NS3/4A protease complexes. […] Briefly, a three-lysine solubilizing tail was added at the 3′-end of the NS4A coding region. […] Briefly, NS3/4A expression was induced with 0.5 mM Isopropyl β-D-1-thiogalactopyranoside (IPTG) for 22 hr at 20° C. […] The crude protein extract was loaded on a Nickel—Nitrilotriacetic acid (Ni-NTA) column pre-equilibrated with buffer B (25 mM HEPES, pH8.0, 20% glycerol, 500 mM NaCl, 0.5% Triton-X100, 15 mM imidazole, 5 mM βME). The sample was loaded at a flow rate of 1 mL/min. The column was washed with 15 column volumes of buffer C (same as buffer B except with 0.2% Triton-X100). The protein was eluted with 5 column volumes of buffer D (same as buffer C except with 200 mM Imidazole).
NS3/4A protease complex-containing fractions were pooled and loaded on a desalting column Superdex-S200 pre-equilibrated with buffer D (25 mM HEPES, pH7.5, 20% glycerol, 300 mM NaCl, 0.2% Triton-X100, 10 mM βME). Sample was loaded at a flow rate of 1 mL/min. NS3/4A protease complex-containing fractions were pooled and concentrated to approximately 0.5 mg/ml.
The enzyme was stored at −80° C., thawed on ice and diluted prior to use in assay buffer. […] The sequence of this peptide is loosely based on the NS4A/NS4B natural cleavage site except there is an ester linkage rather than an amide bond at the cleavage site. The peptide substrate was incubated with one of the three recombinant NS3/4A complexes, in the absence or presence of a compound of the present invention, and the formation of fluorescent reaction product was followed in real time using a Cytofluor Series 4000.
The reagents were as follow: HEPES and Glycerol (Ultrapure) were obtained from GIBCO-BRL. Dimethyl Sulfoxide (DMSO) was obtained from Sigma. β-Mercaptoethanol was obtained from Bio Rad.
Substrate: 2 μM final concentration (from a 2 mM stock solution in DMSO stored at −20° C.). HCV NS3/4A type 1a (1b), 2-3 nM final concentration (from a 5 μM stock solution in 25 mM HEPES, pH7.5, 20% glycerol, 300 mM NaCl, 0.2% Triton-X100, 10 mM βME).
The assay was performed in a 96-well polystyrene black plate from Falcon. Each well contained 25 μl NS3/4A protease complex in assay buffer, 50 μof a compound of the present invention in 10% DMSO/assay buffer and 25 μl substrate in assay buffer. A control (no compound) was also prepared on the same assay plate. The enzyme complex was mixed with compound or control solution for 1 min before initiating the enzymatic reaction by the addition of substrate. The assay plate was read immediately using the Cytofluor Series 4000 (Perspective Biosystems). The instrument was set to read an […] at 25° C. Reactions were generally followed for approximately 15 minutes.
The percent inhibition was calculated with the following equation: 100−[(δFinh/δFcon)×100] where δF is the change in fluorescence over the linear range of the curve.

[2] = tested on: HCV replicon in Huh7 cells; test: HCV replicon cell-based assay; set-up: species or system HCV strain 1B; conditions: Hepatitis C virus, Huh-7; HCV replicon, Huh7 cells; read-out: EC50 range
Description: HCV Replicon Cell-based Assay
This system enabled us to evaluate the effects of our HCV Protease compounds on HCV RNA replication. Briefly, using the HCV strain 1B sequence described in the Lohmann paper (Assession number:AJ238799), an HCV cDNA was generated encoding the 5′ internal ribosome entry site (IRES), the neomycin resistance gene, the EMCV (encephalomyocarditis virus)-IRES and the HCV nonstructural proteins, NS3-NS5B, and 3′ non-translated region (NTR). In vitro transcripts of the cDNA were transfected into the human hepatoma cell line, Huh7. […] Resulting cell lines were characterized for positive and negative strand RNA production and protein production over time.
Huh7 cells, constitutively expressing the HCV replicon, were grown in Dulbecco's Modified Eagle Media (DMEM) containing 10% Fetal calf serum (FCS) and 1 mg/ml G418 (Gibco-BRL). Cells were seeded the night before (1.5×10^4 cells/well) in 96-well tissue-culture sterile plates. Compound and no compound controls were prepared in DMEM containing 4% FCS, 1:100 Penicillin/Streptomysin, 1:100 L-glutamine and 5% DMSO in the dilution plate (0.5% DMSO final concentration in the assay). Compound/DMSO mixes were added to the cells and incubated for 4 days at 37° C. After 4 days, plates were rinsed thoroughly with Phosphate-Buffered Saline (PBS) (3 times 150 μl). The cells were lysed with 25 μl of a lysis assay reagent containing the FRET peptide (RET S1, as described for the in vitro enzyme assay). The lysis assay reagent was made from 5× cell Luciferase cell culture lysis reagent(Promega #E153A) diluted to 1× with distilled water, NaCl added to 150 mM final, the FRET peptide diluted to 10 μM final from a 2 mM stock in 100% DMSO. The plate was then placed into the Cytofluor 4000 instrument which had been set to 340 nm excitation/490 emission, automatic mode for 21 cycles and the plate read in a kinetic mode. EC50 determinations were carried out as described for the IC50 determinations.
Cells were lyzed using the Rneasy kit (Qiagen). […] All primers were designed with ABI Prism 7700 software and obtained from Biosearch Technologies, Novato, Calif. Samples containing known concentrations of HCV RNA transcript were run as standards. Using the following cycling protocol (50° C., 30 min; 95° C., 5 min; 40 cycles of 95° C., 15 sec, 60° C., 1 min), HCV RNA expression was quantitated as described in the Perkin Elmer manual using the ABI Prism 7700 Sequence Detector.

SMILES	IC50 [1]	EC50 [2]
C=C[C@@H]1C[C@]1(NC(=O)[C@@H]1C[C@@H](Oc2nccc3c(C(F)(F)F)cccc23)CN1C(=O)[C@@H](NC(=O)OC(C)(C)C)C(C)(C)C)C(=O)NS(=O)(=O)C1CC1 [Compound 270]	< 0.1 µM	0.1 to 1 µM
C=CC1C[C@]1(NC(=O)[C@@H]1C[C@@H](Oc2nccc3c4c(ccc23)OCO4)CN1C(=O)[C@@H](NC(=O)OC(C)(C)C)C(C)(C)C)C(=O)NS(=O)(=O)C1CC1 (stereo partly drawn) [Compound 211, BOCNH-P3(L-t-BuGly)-P2-[(4R)-(1,3-Dioxa-7-aza-cyclopenta[α]naphthalen-6-ol)-S -proline]-P1(1R,2S VinylAcca)-CONHSO2Cyclopropane]	< 0.1 µM	< 0.1 µM
C=C[C@@H]1C[C@]1(NC(=O)[C@@H]1C[C@@H](Oc2nccc3cc(OC)ccc23)CN1C(=O)[C@@H](NC(=O)OC(C)(C)C)C(C)(C)C)C(=O)NS(=O)(=O)C1CC1 [Compound 11]	< 0.1 µM	< 0.1 µM
C=C[C@@H]1C[C@]1(NC(=O)[C@@H]1C[C@@H](Oc2nc(C#N)cc3ccccc23)CN1C(=O)[C@@H](NC(=O)OC(C)(C)C)C(C)(C)C)C(=O)NS(=O)(=O)C1CC1 [Compound 32]	< 0.1 µM	< 0.1 µM
C=C[C@@H]1C[C@]1(NC(=O)[C@@H]1C[C@@H](Oc2nccc3cc(OC)ccc23)CN1C(=O)[C@@H](NC(=O)OC(C)(C)C)C1CCCC1)C(=O)NS(=O)(=O)C1CC1 [Compound 149]	< 0.1 µM	< 0.1 µM
C=C[C@@H]1C[C@]1(NC(=O)[C@@H]1C[C@@H](Oc2nccc3cc(OC)ccc23)CN1C(=O)C(NC(=O)OC(C)(C)C)C(C)c1ccccc1)C(=O)NS(=O)(=O)C1CC1 (single isomer, unassigned) [Compound 135]	< 0.1 µM	0.1 to 1 µM
C=C[C@@H]1C[C@]1(NC(=O)[C@@H]1C[C@@H](Oc2nccc3cc(OC)ccc23)CN1C(=O)[C@@H](NC(=O)OC)C(C)(C)C)C(=O)NS(=O)(=O)C1CC1 [Compound 16]	< 0.1 µM	0.1 to 1 µM
C=C[C@@H]1C[C@]1(NC(=O)[C@@H]1C[C@@H](Oc2nccc3cc(OC)ccc23)CN1C(=O)[C@@H](NC(=O)OC(C)(C)C)[C@H](C)O)C(=O)NS(=O)(=O)C1CC1 [Compound 95]	< 0.1 µM	0.1 to 1 µM
C=CC1C[C@]1(NC(=O)[C@@H]1C[C@@H](Oc2nccc3occc23)CN1C(=O)[C@@H](NC(=O)OC(C)(C)C)C(C)(C)C)C(=O)NS(=O)(=O)C1CC1 (stereo partly drawn) [Compound 233]	0.1 to 1 µM	0.1 to 1 µM
C=C[C@@H]1C[C@]1(NC(=O)[C@@H]1C[C@@H](Oc2nccc3cc(OCC)ccc23)CN1C(=O)[C@@H](NC(=O)OC(C)(C)C)C(C)(C)C)C(=O)NS(=O)(=O)C1CC1 [Compound 42]	< 0.1 µM	< 0.1 µM
C=C[C@@H]1C[C@]1(NC(=O)[C@@H]1C[C@@H](Oc2ccnc3cc(OC)ccc23)CN1C(=O)[C@@H](NC(=O)OC(C)(C)C)C(C)C)C(=O)NS(=O)(=O)C1CC1 [Compound 378]	< 0.1 µM	< 0.1 µM
C=CC1C[C@]1(NC(=O)[C@@H]1C[C@@H](Oc2nccc(-c3ccco3)n2)CN1C(=O)[C@@H](NC(=O)CC1CC1)C(C)(C)C)C(=O)NS(=O)(=O)C1CC1 (stereo partly drawn) [Compound 339]	< 0.1 µM	1 to 10 µM
C=CC1C[C@]1(NC(=O)[C@@H]1C[C@@H](Oc2cc(C(F)(F)F)nc3c(C(F)(F)F)cccc23)CN1C(=O)[C@@H](NC(=O)OC(C)(C)C)C(C)(C)C)C(=O)NS(=O)(=O)C1CC1 (stereo partly drawn) [Compound 181, BOCNH-P3(L-tert-BuGly)-P2[(4R)-(2,8-bistrifluoromethyl quinolin-4-oxo)-S-proline]-P1(1R,2S Vinyl Acca)-CONHSO2-Cyclopropane]	< 0.1 µM	0.1 to 1 µM
C=C[C@@H]1C[C@]1(NC(=O)[C@@H]1C[C@@H](Oc2cc(-c3ccccc3)ncn2)CN1C(=O)[C@@H](NC(=O)OC(C)(C)C)C(C)(C)C)C(=O)NS(=O)(=O)C1CC1 [Compound 411]	< 0.1 µM	0.1 to 1 µM
C=C[C@@H]1C[C@]1(NC(=O)[C@@H]1C[C@@H](Oc2nc(-c3cnccn3)cc3ccccc23)CN1C(=O)[C@@H](NC(=O)OC(C)(C)C)C(C)(C)C)C(=O)NS(=O)(=O)C1CC1 [Compound 31]	< 0.1 µM	< 0.1 µM
C=C[C@@H]1C[C@]1(NC(=O)[C@@H]1C[C@@H](Oc2nccc3c4c(ccc23)CCO4)CN1C(=O)[C@@H](NC(=O)OC(C)(C)C)C(C)(C)C)C(=O)NS(=O)(=O)C1CC1 [Compound 265]	< 0.1 µM	< 0.1 µM
C=C[C@@H]1C[C@]1(NC(=O)[C@@H]1C[C@@H](Oc2nccc3c(OC(F)(F)F)cccc23)CN1C(=O)[C@@H](NC(=O)OC(C)(C)C)C(C)(C)C)C(=O)NS(=O)(=O)C1CC1 [Compound 269]	< 0.1 µM	0.1 to 1 µM
C=CC1CC1(NC(=O)[C@@H]1C[C@@H](Oc2cc(CC)nc3c(C)noc23)CN1C(=O)[C@@H](NC(=O)OC(C)(C)C)C(C)(C)C)C(=O)NS(=O)(=O)C1CC1 (stereo partly drawn) [Compound 9]	< 0.1 µM	0.1 to 1 µM
C=C[C@@H]1CC1(NC(=O)[C@@H]1CC(Oc2nccc3cc(OC)ccc23)CN1C(=O)[C@@H](NC(=O)NC(C)(C)C)C(C)(C)C)C(=O)NS(=O)(=O)C1CC1 (stereo partly drawn) [Compound 74]		< 0.1 µM
C=C[C@@H]1C[C@]1(NC(=O)[C@@H]1C[C@@H](Oc2nccc3cc(OC)ccc23)CN1C(=O)[C@@H](NC(=O)N[C@H](C(=O)OC)C(C)(C)C)C(C)(C)C)C(=O)NS(=O)(=O)C1CC1 [Compound 146]		< 0.1 µM
C=C[C@@H]1C[C@]1(NC(=O)[C@@H]1C[C@@H](Oc2ncc(OC)c3ccc(Cl)cc23)CN1C(=O)[C@@H](NC(=O)OC(C)(C)C)C(C)(C)C)C(=O)NS(=O)(=O)C1CC1 [Compound 277]		< 0.1 µM
